Measurements as given in patent US11583524B2, “Inhibitors of the interaction between MDM2 and P53” (Janssen Pharmaceutica NV, priority 2007, dated 2023).

How the values were obtained:
Type in all cases: cell-based, human
[1] = test system: p53 in A2780 cells; test: p53 ELISA (preservation of p53 in A2780 cells); details: lowest dose giving at least 140% of the p53 value in the control, 16 hours treatment; for minimal effective concentration: Homo sapiens, read-out: p53-elisa LAD
Protocol: The capacity of the compounds to preserve p53 in A2780 cells was measured with the p53 enzyme linked immunosorbent assay (ELISA). The p53 assay is a “sandwich” enzyme immunoassay employing two polyclonal antibodies. A polyclonal antibody, specific for the p53 protein, has been immobilized onto the surface of the plastic wells. Any p53 present in the sample to be assayed will bind to the capture antibody. The biotinylated detector polyclonal antibody also recognizes p53 protein, and will bind to any p53, which has been retained by the capture antibody. The detector antibody, in turn, is bound by horseradish peroxidase-conjugated streptavidin. The horseradish peroxidase catalyses the conversion of the chromogenic substrate o-phenylene diamine, the intensity of which is proportional to the amount of p53 protein bound to the plate. The coloured reaction product is quantified using a spectrophotometer. Quantitation is achieved by the construction of a standard curve using known concentrations of purified recombinant HIS tagged p53 protein (see example C.1).
A2780 cells (ATCC) were cultivated in RPMI 1640 supplemented with 10% fetal calf serum (FCS), 2 mM L-glutamine and gentamycin at 37° C. in a humidified incubator with 5% CO2.
A2780 cells were seeded at 20.000 cells per well in a 96 well plate, cultured for 24 hours and treated with compound for 16 hours at 37° C. in a humidified incubator. After incubation, the cells were washed once with phosphate-buffered saline and 30 μl, per well, low salt RIPA buffer (20 mM tris, pH7.0, 0.5 mM EDTA, 1% Nonidet P40, 0.5% DOC, 0.05% SDS, 1 mM PMSF, 1 μg/ml aprotinin and 0.5 μ/ml leupeptin) was added. Plates were placed on ice for 30 minutes to complete the lysis. p53 protein was detected in de lysates by using the sandwich ELISA, described below.
High binding polystyrene EIA/RIA 96 well plates (Costar 9018) were coated with the capture antibody pAb1801 (Abcam ab28-100) at a concentration of 1 μg/ml in coating buffer (0.1 M NaHCO3 pH8.2), 50 μl per well. The antibody was allowed to adhere overnight at 4° C. Coated plates were washed once with phosphate-buffered saline (PBS)/0.05% Tween 20 and 300 μl of blocking buffer (PBS, 1% bovine serum albumins (BSA)) was added, for an incubation period of 2 hours at room temperature. Dilutions of purified recombinant HIS tagged p53 protein, ranging from 3-200 ng/ml, were made in blocking buffer and used as standards.
Plates were washed twice with PBS/0.05% Tween 20 and blocking buffer or standards were added at 80 μl/well. To the standards, 20 μl of lysis buffer was added. The samples were added to the other wells at 20 μl lysate/well. After an overnight incubation at 4° C., plates were washed twice with PBS/0.05% Tween 20. Aliquots of 100 μl secondary polyclonal antibody p53(FL-393) (Tebubio, sc-6243) at a concentration of 1 μg/ml in blocking buffer were added to each well and allowed to adhere for 2 hours at room temperature. Plates were washed three times with PBS/0.05% Tween 20. Detection antibody anti-rabbit HRP (sc-2004, Tebubio) at 0.04 μg/ml in PBS/1% BSA was added and incubated for 1 hour at room temperature. Plates were washed three times with PBS/0.05% Tween 20 and 100 μl of substrate buffer was added (substrate buffer was prepared shortly before use by adding 1 tablet of 10 mg o-phenylene diamine (OPD) from Sigma and 125 μl 3% H2O2 to 25 ml OPD buffer: 35 mM citric acid, 66 mM Na2HPO4, pH5.6). After 5 to 10 minutes, colour reaction was stopped by adding 50 μl stop buffer (1 M H2SO4) per well. The absorbance at dual wavelengths of 490/655 nm was measured using a Biorad micro plate reader and the results were then analyzed.
For each experiment, controls (containing no drug) and a blank incubation (containing no cells or drugs) were run in parallel. The blank value was subtracted from all control and sample values. For each sample, the value of p53 (in absorbance units) was expressed as the percentage of the value for p53 present in the control. […]

[2] = test system: U87MG glioma cells; test: Alamar Blue cell proliferation assay, U87MG; details: 4-day incubation; for IC50: Homo sapiens, U-87 MG, 96 h, read-out: U87MG cell proliferation inhibition pIC50 (converted)
Protocol: The human U87MG glioma cells were cultured in DMEM medium supplemented with 2 mM L-Glutamine, 1 mM Sodium Pyruvate, 1.5 g/L Sodium Bicarbonate, 50 μg/ml gentamicin and 10% heat inactivated fetal calf serum. (U87MG cells are human glioblastoma cells with wild type p53. In this cell line MDM2 tightly controls p53 expression).
(§1) Resazurin was purchased from Aldrich (Prod. No. 199303). Potassium ferrocyanide, potassium ferricyanide, KH2PO4 and K2HPO4 were purchased from Sigma (Prod. Nos. P9387, P8131, P5655 and P8281, respectively).
(§2) Potassium Phosphate Buffer 0.1 M (PPB) was made as follows: 2.72 gram KH2PO4 and 13.86 gram K2HPO4 were dissolved in 500 ml milli-Q H2O, the pH was adjusted to pH 7.4 and the volume was brought to 1 litre with milli-Q H2O; the buffer was filter sterilised and stored at room temperature. Resazurin stock solution (PPB-A) was prepared fresh by dissolving 45 mg resazurin in 15 ml PBS. 30 mM potassium ferricyanide (PPB-B) was prepared by dissolving 0.987 gram potassium ferricyanide in 100 ml PPB. 30 mM potassium ferrocyanide (PPB-C) was prepared by dissolving 1.266 gram potassium ferrocyanide in 100 ml PPB.
(§3) Mixture of PPB-A, PPB-B and PPB-C was prepared by mixing equal volumes of the respective solutions. Resazurin work solution (herein termed “Alamar Blue” solution) was prepared by diluting said mixture 20×(vol/vol) in PPB and filter sterilising; the Alamar Blue solution could be kept at 4° C. for a maximum of 2 weeks.
(§4) For experiments in 384 wells plates the cells were seeded at a density of 5×10^3 cells/ml in Falcon 384-well culture plates (Life Technologies, Merelbeke, Belgium), black with clear bottom, in 45 μl culture medium. Cells were allowed to adhere to plastic for 24 hr. The tested compound was pre-diluted (1/50 in culture medium) and 5 μl pre-diluted compound was added to the wells. Following 4-day incubation, 10 μl of the Alamar Blue solution was added to each well and the cells were further incubated for 5 hrs (A2780) or 6 hrs (U87MG) at 37° C. The fluorescence intensity was measured for each well with a Fluorescence plate reader (Fluorskan, Labsystems, 540 nm excitation and 590 nm emission)
(§5) The antiproliferative activity was calculated as percentage of remaining viable cells in treated versus control (untreated cells) conditions. Within an experiment, the result for each experimental condition is the mean of 3 replicate wells. When appropriate, the experiments were repeated to establish full concentration-response curves. When appropriate, IC50-values (concentration of the drug, needed to reduce cell growth to 50% of the control) were computed using probit analysis for graded data (Finney, D. J., Probit Analyses, 2nd Ed. Chapter 10, Graded Responses, Cambridge University Press, Cambridge 1962). Herein the effects of test compounds are expressed as pIC50 (the negative log value of the IC50-value) (see Table 4).

[3] = test system: A2780 ovarian cancer cells; test: Alamar Blue cell proliferation assay, A2780; details: 4-day incubation; for IC50: Homo sapiens, 96 h, read-out: A2780 cell proliferation inhibition pIC50 (converted)
Protocol: Cellular activity of the compounds of formula (I) was determined on A2780 tumour cells using a colorimetric assay for cell toxicity or survival (see example C.2).
The human A2780 ovarian cancer cells were a kind gift from Dr. T. C. Hamilton (Fox Chase Cancer Centre, Pennsylvania, U.S.A.). The cells were cultured in RPMI 1640 medium supplemented with 2 mM L-Glutamine, 50 μg/ml gentamicin and 10% fetal calf serum.
as §1, §2, §3, §4, §5

U87MG cell proliferation inhibition pIC50 [2] | A2780 cell proliferation inhibition pIC50 [3] | IC50 [2] [nM] | IC50 [3] [nM] | Compound | p53-elisa LAD [1] [µM] | minimal effective concentration [1] [µM]
5.18 | <5 |  |  | COc1ccc2c(CCNc3c(F)cc(Nc4ccncc4)cc3F)c[nH]c2c1 [Compound 13] | >10.0 | 
<5 | <5 |  |  | Clc1cc(Nc2ccncc2)cc(Cl)c1NCCc1c[nH]c2ccccc12 [Compound 20] | >10.0 | 
<5 | <5 |  |  | Cc1cccc2c(CCNc3c(Cl)cc(Nc4ccncc4)cc3Cl)c[nH]c12 [Compound 21] | >10.0 | 
5.29 | <5 |  |  | COc1ccc2c(CCNc3c(Cl)cc(Nc4ccncc4)cc3Cl)c[nH]c2c1 [Compound 22] | >10.0 | 
<5 | <5 |  |  | COc1cccc2c(CCNc3c(Cl)cc(Nc4ccncc4)cc3Cl)c[nH]c12 [Compound 23] | >10.0 | 
<5 | <5 |  |  | COc1ccc2c(CCNc3c(Cl)cc(Nc4ccnc(CO)c4)cc3Cl)c[nH]c2c1 [Compound 27] | >10.0 | 
5.08 | <5 |  |  | COc1ccc2c(CCNc3c(Cl)cc(Nc4ccnc5c4CCC5O)cc3Cl)c[nH]c2c1 (centres unmarked) [Compound 36] | 10.0 | 

More lines, now with the values behind:

Compound | U87MG cell proliferation inhibition pIC50 [2] | A2780 cell proliferation inhibition pIC50 [3] | IC50 [2] [nM] | IC50 [3] [nM] | p53-elisa LAD [1] [µM] | minimal effective concentration [1] [µM]
OCc1cc(Nc2cc(F)c(NCCc3c[nH]c4ccccc34)c(F)c2)ccn1 [Compound 14] |  |  | > 10000 | > 10000 |  | > 10
COc1ccc2c(CCNc3c(F)cc(Nc4ccnc(CO)c4)cc3F)c[nH]c2c1 [Compound 16] | <5 | <5 |  |  | >10.0 | 
COc1ccc2c(CCNc3c(F)cc(Nc4ccnc5c4CCC5O)cc3F)c[nH]c2c1 (centres unmarked) [Compound 19] | 5.15 | <5 |  |  | >10.0 | 
COc1cccc2c(CCNc3c(Cl)cc(Nc4ccnc(CO)c4)cc3Cl)c[nH]c12 [Compound 28] | <5 | <5 |  |  | >10.0 | 
Cc1cccc2c(CCNc3c(Cl)cc(Nc4ccnc5ccccc45)cc3Cl)c[nH]c12 [Compound 30] | 5.06 | 5.08 |  |  | 1.0 | 
COc1cccc2c(CCNc3c(Cl)cc(Nc4ccnc5ccccc45)cc3Cl)c[nH]c12 [Compound 32] | 5.48 | <5 |  |  | >10.0 | 
OC1CCc2c(Nc3cc(Cl)c(NCCc4c[nH]c5ccccc45)c(Cl)c3)ccnc21 (centres unmarked) [Compound 33] | <5 | <5 |  |  | 3.0 | 
Cc1[nH]c2ccccc2c1CCNc1c(Cl)cc(Nc2ccnc3c2CCC3O)cc1Cl (centres unmarked) [Compound 34] | 5.14 | 5.67 |  |  | 1.0 | 
Cc1cccc2c(CCNc3c(Cl)cc(Nc4ccnc5c4CCC5O)cc3Cl)c[nH]c12 (centres unmarked) [Compound 35] | <5 | <5 |  |  | 1.0 | 
COc1cccc2c(CCNc3c(Cl)cc(Nc4ccnc5c4CCC5O)cc3Cl)c[nH]c12 (centres unmarked) [Compound 37] | <5 | <5 |  |  | 3.0 | 
OCc1cc(Nc2cc(Br)c(NCCc3c[nH]c4ccccc34)cc2CO)ccn1 [Compound 52] | 5.33 | <5 |  |  | >10.0 | 
OCc1cc(NCCc2c[nH]c3ccccc23)c(Br)cc1Nc1ccnc2c1CCC2O (centres unmarked) [Compound 54] |  | <5 |  |  | >10.0 | 
N#Cc1c(NCCc2c[nH]c3ccccc23)ccc(Nc2ccnc3c2CCC3O)c1N1CCOCC1 (centres unmarked) [Compound 57] | <5 | <5 |  |  | >10.0 | 
Cc1cccc2c(CCNc3ccc(Nc4ccnc5c4CCC5O)c(N4CCOCC4)c3C#N)c[nH]c12 (centres unmarked) [Compound 58] | <5 | <5 |  |  | >10.0 | 
COc1c(Nc2ccnc3c2CCC3O)ccc(NCCc2c[nH]c3c(CO)cccc23)c1F (centres unmarked) [Compound 62] |  |  | 1290 | 912 |  | 3
COc1c(Nc2ccnc3c2CCC3O)ccc(NCCc2c[nH]c3c(C(C)(C)O)cccc23)c1F (centres unmarked) [Compound 63] |  |  | 468 | 74.1 |  | 1
